The target of one test is T1, BRD4 (BDII_E352-M457) (Homo sapiens, UniProt O60885).
T1 construct: made in house
In words: TR-FRET bromodomain binding assay, BRD4 second bromodomain. Particulars: His-tagged BD2, Alexa647-labeled probe 30 nM; Ki calculated from IC50. Here is the method:
(§1) A time-resolved fluorescence resonance energy transfer (TR-FRET) assay was used to determine the affinities of compounds of the Examples listed in Table 1 for each bromodomain of BRD4. His-tagged first (BD1: amino acids K57-E168) and second (BD2: amino acids E352-E168) bromodomains of BRD4 were expressed and purified. An Alexa647-labeled BET-inhibitor was used as the fluorescent probe in the assay.
(§2) Compound dilution series were prepared in DMSO via a 3-fold serial dilution from 2.5 mM to 42 nM. Compounds were then diluted 6:100 in assay buffer (20 mM Sodium Phosphate, pH 6.0, 50 mM NaCl, 1 mM Ethylenediaminetetraacetic acid disodium salt dihydrate, 0.01% Triton X-100, 1 mM DL-Dithiothreitol) to yield 3× working solutions. Six microliters (μL) of the working solution was then transferred to white, low-volume assay plates (Costar #3673). A 1.5× assay mixture containing His-tagged bromodomain, Europium-conjugated anti-His antibody (Invitrogen PV5596) and the Alexa-647-conjugated probe molecule was also prepared. Twelve μL of this solution were added to the assay plate to reach a final volume of 18 μL. The final concentration of 1× assay buffer contains 2% DMSO, 50 μM-0.85 nM compound, 8 nM His-tagged bromodomain, 1 nM Europium-conjugated anti-His-tag antibody and 100 nM or 30 nM probe (for BDI or BDII, respectively). After a one-hour incubation at room temperature, TR-FRET ratios were determined using an Envision multilabel plate reader (Ex 340, Em […]).
(§3) TR-FRET data were normalized to the means of 24 no-compound controls (“high”) and 8 controls containing 1 μM un-labeled probe (“low”). Percent inhibition was plotted as a function of compound concentration and the data were fit with the 4 parameter logistic equation to obtain IC50s. Inhibition constants (Ki) were calculated from the IC50s, probe Kd and probe concentration. Typical Z′ values were between 0.65 and 0.75. The minimum significant ratio was determined to evaluate assay reproducibility (Eastwood et al., (2006) J Biomol Screen, 11: 253-261). The MSR was determined to be 2.03 for BDI and 1.93 for BDII, and a moving MSR (last six run MSR overtime) for both BDI and BDII was typically <3.

For another test, the target named is T2, BRD4 (BDI_K57-E168) (Homo sapiens, UniProt O60885).
T2 construct: BD1: amino acids K57-E168; made in house
Briefly: TR-FRET bromodomain binding assay, BRD4 first bromodomain. Particulars: His-tagged BD1, Alexa647-labeled probe 100 nM; Ki calculated from IC50. Here is the method:
as §1, §2, §3

The Ki is the equilibrium dissociation constant of an inhibitor or competing ligand from its target.

For the compound “2-methyl-5-[2-(pyridin-2-yloxy)phenyl]-1H-pyrrole-3-carboxamide [Example 131]”, the Ki at BRD4 (BDII_E352-M457) was 22.2 µM; on BRD4 (BDI_K57-E168), 9.4 µM.

On to `Cc1[nH]c(-c2ccccc2N)cc1C(N)=O` [Example 1, 5-(2-aminophenyl)-2-methyl-1H-pyrrole-3-carboxamide], for which the Ki is 6.21 µM at BRD4 (BDII_E352-M457) and 2.54 µM at BRD4 (BDI_K57-E168).

Turning to `CC(=O)Nc1ccccc1-c1cc(C(N)=O)c(C)[nH]1` [Example 2, 5-[2-(acetylamino)phenyl]-2-methyl-1H-pyrrole-3-carboxamide], the figures for the inhibition constant Ki at BRD4 (BDII_E352-M457) and on BRD4 (BDI_K57-E168) were 21.5 µM and 2.92 µM, respectively.

In the case of `Cc1[nH]c(-c2ccccc2NCc2ccc(NC(=O)OC(C)(C)C)cc2)cc1C(N)=O` [Example 50, tert-butyl [4-({[2-(4-carbamoyl-5-methyl-1H-pyrrol-2-yl)phenyl]amino}methyl)phenyl]carbamate], the inhibition constant Ki at BRD4 (BDI_K57-E168) was 5.04 µM.

As for `Cc1[nH]c(-c2ccccc2NCc2cccc(NC(=O)OC(C)(C)C)c2)cc1C(N)=O` [Example 51, tert-butyl [3-({[2-(4-carbamoyl-5-methyl-1H-pyrrol-2-yl)phenyl]amino}methyl)phenyl]carbamate], the Ki at BRD4 (BDI_K57-E168) was 6.7 µM.

Turning to `CC(=O)n1cc(CN(CC2CCCC2)c2ccccc2-c2cc(C(N)=O)c(C)[nH]2)c2ccccc21` [Example 58, 5-(2-{[(1-acetyl-1H-indol-3-yl)methyl](cyclopentylmethyl)amino}phenyl)-2-methyl-1H-pyrrole-3-carboxamide], the Ki at BRD4 (BDI_K57-E168) was 4.68 µM.

With `COc1ccc(CN(CC2CCCC2)c2ccccc2-c2cc(C(N)=O)c(C)[nH]2)cc1` [Example 61, 5-{2-[(cyclopentylmethyl)(4-methoxybenzyl)amino]phenyl}-2-methyl-1H-pyrrole-3-carboxamide], the Ki on BRD4 (BDI_K57-E168) is 8.28 µM.

Take `Cc1[nH]c(-c2ccccc2NC2CCNC2)cc1C(N)=O` (centres unmarked) [Example 64, 2-methyl-5-[2-(pyrrolidin-3-ylamino)phenyl]-1H-pyrrole-3-carboxamide]: at BRD4 (BDI_K57-E168), the Ki is 1.04 µM.

Consider `Cc1[nH]c(-c2ccccc2NC2CN3CCC2CC3)cc1C(N)=O` (centres unmarked) [Example 71, 5-[2-(1-azabicyclo[2.2.2]oct-3-ylamino)phenyl]-2-methyl-1H-pyrrole-3-carboxamide], for which the Ki at BRD4 (BDI_K57-E168) was 0.628 µM.

On to `Cc1[nH]c(-c2ccccc2NS(=O)(=O)c2ccc(Cl)cc2)cc1C(N)=O` [Example 81, 5-(2-{[(4-chlorophenyl)sulfonyl]amino}phenyl)-2-methyl-1H-pyrrole-3-carboxamide], for which the Ki at BRD4 (BDI_K57-E168) is 9.29 µM.

As for `Cc1[nH]c(-c2ccccc2NS(=O)(=O)c2ccc(F)cc2F)cc1C(N)=O` [Example 84, 5-(2-{[(2,4-difluorophenyl)sulfonyl]amino}-phenyl)-2-methyl-1H-pyrrole-3-carboxamide], on BRD4 (BDI_K57-E168), the Ki was 10.6 µM.

Turning to `Cc1[nH]c(-c2ccccc2NS(=O)(=O)c2ccc(O)cc2)cc1C(N)=O` [Example 88, 5-(2-{[(4-hydroxyphenyl)sulfonyl]amino}phenyl)-2-methyl-1H-pyrrole-3-carboxamide], the Ki on BRD4 (BDI_K57-E168) is 8.48 µM.

In the case of `Cc1[nH]c(-c2ccccc2-n2ccc(=O)cc2)cc1C(N)=O` [Example 120], the Ki on BRD4 (BDI_K57-E168) is 4.41 µM.

On to `Cc1[nH]c(-c2ccccc2Oc2ccc(S(C)(=O)=O)cc2)cc1C(N)=O` [Example 132, 2-methyl-5-{2-[4-(methylsulfonyl)phenoxy]phenyl}-1H-pyrrole-3-carboxamide], for which, at BRD4 (BDI_K57-E168), the Ki is 10.9 µM.

On to `COc1cccc(-c2cccc(-c3cc(C(N)=O)c(C)[nH]3)c2)c1` [Example 151, 5-(3′-methoxybiphenyl-3-yl)-2-methyl-1H-pyrrole-3-carboxamide], for which, on BRD4 (BDI_K57-E168), the Ki was 10.4 µM.

In the case of `Cc1[nH]c(-c2cccc(/C=C/c3ccccc3)c2)cc1C(N)=O` [Example 157, 2-methyl-5-{3-[(E)-2-phenylethenyl]phenyl}-1H-pyrrole-3-carboxamide], the inhibition constant Ki at BRD4 (BDI_K57-E168) is 7.41 µM.

For `Cc1[nH]c(-c2cccc(Oc3ccc4c(c3)OCO4)c2)cc1C(N)=O` [Example 160, 5-[3-(1,3-benzodioxol-5-yloxy)phenyl]-2-methyl-1H-pyrrole-3-carboxamide], the Ki on BRD4 (BDI_K57-E168) was 11.5 µM.
